Experiments:
[1] = Hydroxyl radical production from H2O2 by the enzymes or free copper, EPR of DMPO-OH adduct; format: biochemical; conditions: for hydroxyl radical production (double integration of DMPO-OH signal): 1.25 μM protein or 2.5 μM CuSO4, 45 mM DMPO, 30 mM H2O2, pH 7.4
Experimental: Hydroxyl radical formation by mutant and wild type CuZnSODs was determined by measuring the amount of adduct formed when the radical scavenging agent 5,5'-dimethyl-1-pyrroline N-oxide (DMPO) was added to the hydroxyl radical forming reaction. The amount of the DMPO-OH radical adduct formed was determined by measurement of the unique EPR spectra signals of the adduct.
30 mM hydrogen peroxide was injected to start the reaction. […] EPR spectra were recorded on a Bruker ER 200 D at room temperature, operated at 9.5 GHz with a modulation frequency of 100 KHz.
The samples were prepared and handled, and all measurements executed, in a strictly oxygen-free atmosphere, to prevent radical scavenging by molecular oxygen. Buffers were treated with Chelex 100 (Biorad) to eliminate the possibility of contamination by trace metals. […] An aqueous flat cell (Wilmad) was used to hold the samples.

[2] = test system: CSM 14.1 cells overexpressing wild type CuZnSOD; test: Neural cell culture model of FALS: apoptosis/viability after serum withdrawal; format: cell-based, rat
Experimental: (§1) The conditionally-immortalized rat nigral neural cell line CSM 14.1 (M. Durand, et al., Soc. Neurosci. Abs. 16:40 (1990); and L. T. Zhong, et al., Proc. Natl. Acad. Sci. U.S.A. 90:4533 (1993)) was transfected with vectors carrying wild type CuZnSOD or the mutant CuZnSODs A4V, G37R, G41D, or G85R.
(§2) Next the […] efficacy of DDC was tested. Temperature-sensitive nigral neural cells (SCM 14.1) were transfected with wild type and A4V, G37R, G85R, and G41D mutant CuZnSOD constructs by methods described previously (Rabizadeh (1995), supra). Following selection in puromycin (7 μg/ml), cells were plated onto 96-well plates.
(§3) This was calculated as follows:
(§4) viability=[Vm(x)-Vm(0)]/[Vc(0)-Vm(0)]
(§5) Standard errors were computed by the delta method for computing the asymptotic standard error for the estimate of a nonlinear function (D. Colquhoun, Lectures on Biostatistics (Clarendon Press, 1971) pp. 39-42).

[3] = test system: CSM 14.1 cells expressing mutant CuZnSODs A4V, G37R, G41D, G85R; test: as above; format: cell-based, rat; conditions: DDC 25-100 μM, all four mutants
Experimental: as §1, §2, §3, §4, §5

[4] = test system: CSM 14.1 cells; test: Toxicity of DDC in transfected neural cells, all groups; format: cell-based, rat; conditions: DDC 1 mM or greater
Experimental: as §1, §2

In the case of `O=S(=O)([O-])[O-].[Cu+2]` [CuSO4], the “hydroxyl radical production (double integration of DMPO-OH signal)” value (“hydroxyl radical production” for short) [1] is reported as 1.9 µM.

In the case of `CCN(CC)C(=S)S` [DDC, Diethyldithiocarbamate], the effect on viability ([2]; DDC 100 μM, 60 hours, serum-free media) is reported as “no significant effect”, the “effect on cell viability” value ([2]; DDC 500 μM) is reported as “decreased the viability” and the effect on apoptosis ([2]; DDC 25-100 μM, serum withdrawal) is reported as “no effect”. For the same compound, the “inhibition of apoptosis induced by mutant CuZnSODs” value [3] was 30-70% and the “toxicity in all groups” value [4] was “toxic”.

With “CuZnSOD mutant A4V: FALS-associated mutant human CuZnSOD A4V, recombinant, expressed in yeast” the “hydroxyl radical production” value [1] was 15.6 µM, the “DMPO-OH signal relative to the wild type CuZnSOD signal” value ([1]; fully metallated enzyme, mean ± spread) was 3.0±1.1 times and the “range of DMPO-OH signal relative to the wild type CuZnSOD signal” value ([1]; fully metallated enzyme, range over experiments) was 2.1-5.7 times.

For “CuZnSOD mutant G93A: FALS-associated mutant human CuZnSOD G93A, recombinant, expressed in yeast”, the “hydroxyl radical production” value [1] was 6.5 µM.

For “wild type CuZnSOD: recombinant human wild type copper-zinc superoxide dismutase expressed in Saccharomyces cerevisiae”, the “hydroxyl radical production” value [1] was 3.2 µM.

Reference: patent publication US5834457A, “Method of modulating radical formation by mutant cuznsod enzymes” (The Regents of the University of California, priority 1996, dated 1998)
